Entries after “also recorded” stand apart in the source; their conditions may differ. Read-outs that look alike come from different tables or passages of the source.

Broadly, the IC50 is the concentration needed to halve the response being measured.

Holding throughout (type): cell-based, Chinese hamster
In one test the target is SREBP. As to the kind of experiment: SRE-driven luciferase reporter assay of SREBP activation. The note with it: luciferase reporter in CHO-K1 cells, lipid-depleted medium, 20-24 h, normalized to β-galactosidase, averages of three independent experiments, read-out: IC50 (μM), inhibitory effect on the activation of SREBP. Here is the method: The transfected cells were treated with DMSO alone, sterols (10 μg/mL cholesterol and 1.0 μg/mL 25-HC), or varied concentrations of 25(OH)D in a medium containing lipid-free serum. Luciferase activity was measured after 20 h incubation, and the data were normalized to β-galactosidase activity. Values are the mean±SD of three independent experiments.
The molecules in a chemical library which consists of 280 endogenous lipid related molecules were screened for their ability to inhibit the expression of a luciferase reporter gene. In this gene, three repeats of sterol regulatory elements (SREs) control expression of luciferase. Lipid depletion activates SREBPs, which bind to the SRE domain and work as transcription factors to express luciferase. The SREBP-responsive reporter construct was co-transfected into Chinese hamster ovary K1 (CHO-K1) cells, along with a control β-galactosidase (β-gal) reporter gene. A constitutively active actin promoter in the reporter gene drives the expression of β-gal. The levels of luciferase expression from the SREBP-responsive reporter gene were normalized to the levels of β-gal expression.
CHO-K1 cells were maintained in a medium A (1:1 mixture of Ham's F-12 medium and Dulbecco's modified Eagle medium, supplemented with 100 units/mL penicillin, 100 μg/mL streptomycin sulfate, and 5% (v/v) fetal bovine serum) at 37° C. under humidified 5% CO2.
On day 0, CHO-K1 cells were added to 96-well plates at 1.0×10^4 cells per well in medium A. On day 1, the cells were co-transfected with an SRE-1-driven luciferase reporter construct (pSRE-Luc) and pAc-β-gal at a 20/1 ratio, using FuGENE(Registered trademark) HD transfection reagent (Promega), according to the manufacturer's protocol. After 8-12 h of incubation, the cells were washed with PBS buffer, then incubated in medium B containing the specific test compounds. […] After 20-24 h of incubation, the cells in each well were lysed by freeze-thaw with Reporter Lysis Buffer (Promega), and aliquots were used to measure luciferase and β-galactosidase activities. Luciferase activity was measured using the Steady-Glo(Registered trademark) Luciferase Assay System (Promega), and β-galactosidase activity was measured using the β-galactosidase Enzyme Assay System (Promega). Luciferase activity was normalized to β-galactosidase activity.

The test system of the next test is SREBP-2. Briefly: Western-blot analysis of SREBP-2 in CHO-K1 cells. The note with it: 5 μM; for levels of the mature form of SREBP versus DMSO: 16 h, CHO-K1 cells (FIG. 7, FIG. 8). Here is the method: CHO-K1 cells were treated with DMSO alone or each molecule (5 μM) for 18 h. The levels of precursor and mature forms of SREBP-2 were analyzed by Western-blot. Western-blots of actin are shown in lower panel as a loading control.
CHO-K1 cells were treated with DMSO alone or each molecule (5 μM) for 16 h. The levels of precursor and mature forms of SREBP-2 were analyzed by Western-blot. Western-blots of actin are shown in lower panel as a loading control.
On day 0, CHO-K1 cells were added to 6-well plates at 3.0×10^5 cells per well in medium A. On day 1, the cells were washed with PBS, and then incubated in medium B in the absence or presence of specific test compounds (5 μM). After 16 h of incubation, the cells were washed three times with cold PBS, and lysed with a buffer A (50 mM Tris-HCl (pH 7.5), 150 mM NaCl, 1% (v/v) Nonidet P40, 0.5% (w/v) sodium deoxycholate, 8 M urea, and protease inhibitor cocktail (Nacalai)). The cell lysate were passed 16 times through a 25 G needle and centrifuged at 7,000 g at 4° C. for 10 min. The supernatants were transferred to new tubes, and the pellets were extracted with a buffer A. The resulting buffer was centrifuged at 7,000 g at 4° C. for 10 min, and the supernatants were combined to the previous ones. The resulting lysate was mixed with 0.20 volume of 6×SDS sample buffer (Nacalai) and incubated at room temperature for 30 min. The samples were separated on a 10% SDS-PAGE gel and blotted, using mouse monoclonal antibodies against SREBP-2 (IgG-7D4), SCAP (IgG-9D5), c-Myc (IgG1-MC045), and actin (AC-40). The specific bands were visualized using enhanced chemiluminescence (ECL Prime Western Blotting Detection Reagent, GE Healthcare) on an ImageQuant LAS 500 (GE Healthcare).

The test system of test [1] is SREBP-2 fragment fused to PLAP (PLAP-BP2513-1141). Briefly: PLAP-BP assay (secreted alkaline phosphatase reporter of SREBP translocation and processing). The note with it: VD derivatives 10 μM, 20 h, CHO-K1 co-transfected with PLAP-BP2 and SCAP; average of two experiments.

Take 19-Nor 1β-NPhth-3β-OH VD3 [Compound 76]: the IC50 on SREBP stood at 2.05 µM.
With `C[C@H](CCCC(C)(C)O)[C@H]1CC[C@H]2[C@@H]3CC=C4C[C@@H](O)CC[C@]4(C)[C@H]3CC[C@]12C` [Compound 25-HC, 25-hydroxycholesterol, reference compound], in the test with SREBP-2 (18 h, CHO-K1 cells (FIG. 3)), the “level of mature form of SREBP” value is given as “disappeared” and the “level of precursor form of SREBP” value is given as “accumulated”.
19-Nor 1β-NHTs-3β-OH VD3 [Compound 72]: on SREBP, the IC50 is 1.69 µM.
With `C=C1C(=CC=C2CCCC3(C)C2CCC3C(C)CCCC(C)C)CC(O)CC1NC(C)=O` (stereo not drawn) [Compound 22b, 1β-NHAc VD3], the “levels of the mature form of SREBP versus DMSO” value (“levels … of SREBP versus DMSO” for short) in the test on SREBP-2 is on record as “lower than that of DMSO”. In addition, the IC50 on SREBP was determined as 3.56 µM.
Consider 1α-NH(p-CF3Bz) VD3 [Compound 38], for which the “levels … of SREBP versus DMSO” value with SREBP-2 is listed as “lower than that of DMSO”. Further, on SREBP, the IC50 is 1.76 µM.
`C=C1C(=CC=C2CCCC3(C)C2CCC3C(C)CCCC(C)C)CC(O)CC1NC(=O)OCc1ccccc1` (stereo not drawn) [Compound 36, 1α-NHCbz VD3]: the “levels … of SREBP versus DMSO” value with SREBP-2 is listed as “lower than that of DMSO”. Also, the IC50 at SREBP was found to be 1.38 µM.
Take `C=C1C(=CC=C2CCCC3(C)C2CCC3C(C)CCCC(C)C)CC(O)CC1NS(=O)(=O)c1ccc(C)cc1` (stereo not drawn) [Compound 32, 1α-NHTs VD3]: the “levels … of SREBP versus DMSO” value with SREBP-2 was “lower than that of DMSO”. In addition, on SREBP, the IC50 was determined as 0.61 µM.
Regarding `C=C1/C(=C\C=C2/CCC[C@]3(C)[C@@H]([C@H](C)CCCC(C)(C)O)CC[C@@H]23)C[C@@H](O)C[C@@H]1NCC1CC1` [Compound 49, 1α-NH(Cyclopropylmethyl) VD3], the IC50 with SREBP (Cricetulus griseus) stood at 16 µM.
For 1α-OH-3α-NHTs VD3 [Compound 73], the half-maximal inhibitory concentration (IC50) on SREBP was 2.71 µM.
As to `C=C1C(=CC=C2CCCC3(C)C2CCC3C(C)CCCC(C)C)CC(O)CC1NC(=O)OC(C)(C)C` (stereo not drawn) [Compound 18a, 1α-NHBoc VD3], at SREBP, the IC50 is 0.82 µM.
On to 1α-NHNs VD3 [Compound 28], for which the “levels … of SREBP versus DMSO” value with SREBP-2 was “lower than that of DMSO”. For the same compound, on SREBP, the IC50 was found to be 0.68 µM.
Turning to `C=C1/C(=C\C=C2/CCC[C@]3(C)[C@@H]([C@H](C)CCCC(C)(C)O)CC[C@@H]23)C[C@@H](O)C[C@@H]1O` [1,25(OH)2D, 1α,25-dihydroxyvitamin D3], the “secretion of PLAP” value in test [1] is listed as “inhibited the secretion of PLAP to a greater extent than sterol; also recorded: caused a greater decrease in PLAP secretion than did cholesterol”.
With 1α-OH-3α-NHPhth VD3 [Compound 77], the IC50 at SREBP turned out to be 1.55 µM.
As for `C[C@H](CCCC(C)(C)O)[C@H]1CC[C@H]2/C(=C/C=C3/C[C@@H](O)C[C@H](NS(C)(=O)=O)C3)CCC[C@]12C` [Compound 89, 19-Nor 1α-NHMs-3β-OH VD3], the IC50 with SREBP (Cricetulus griseus) was determined as 3.34 µM.
Regarding `C[C@H](CCCC(C)(C)O)[C@H]1CC[C@H]2/C(=C/C=C3/C[C@@H](O)C[C@H](NC(=O)C(F)(F)F)C3)CCC[C@]12C` [Compound 90, 19-Nor 1α-NH(Trifluoroacetyl)-3β-OH VD3], the IC50 in the test with SREBP (Cricetulus griseus) is 0.83 µM.
The same measure, in the same setting: to `C[C@H](CCCC(C)(C)O)[C@H]1CC[C@H]2/C(=C/C=C3/C[C@@H](O)C[C@H](NS(=O)(=O)c4cccc5c(N(C)C)cccc45)C3)CCC[C@]12C` [Compound 91, 19-Nor 1α-NHDns-3β-OH VD3] belongs 1.17 µM.
In the case of `C=C1/C(=C\C=C2/CCC[C@]3(C)[C@@H]([C@H](C)CCCC(C)(C)O)CC[C@@H]23)C[C@@H](O)C[C@@H]1NC(=O)c1ccc(Br)cc1` [Compound 39, 1α-NH(p-BrBz) VD3], in the test with SREBP-2, the “levels … of SREBP versus DMSO” value was “lower than that of DMSO”. The IC50 with SREBP (Cricetulus griseus) stood at 0.97 µM.
In the case of `C[C@H](CCCC(C)(C)O)[C@H]1CC[C@H]2/C(=C/C=C3/C[C@@H](O)C[C@H](NC(=O)c4ccc(SC(F)(F)F)cc4)C3)CCC[C@]12C` [Compound 86, 19-Nor 1α-NH(p-SCF3Bz)-3β-OH VD3], the IC50 in the test with SREBP (Cricetulus griseus) was found to be 0.53 µM.
Regarding `Cc1ccc(S(=O)(=O)N[C@@H]2C/C(=C\C=C3/CCC[C@]4(C)[C@@H]([C@H](C)CCCC(C)(C)O)CC[C@@H]34)C[C@@H](O)C2)cc1` [Compound 85, 19-Nor 1α-NHTs-3β-OH VD3], the IC50 in the test with SREBP (Cricetulus griseus) worked out at 0.52 µM.
Take `C[C@H](CCCC(C)(C)O)[C@H]1CC[C@H]2/C(=C/C=C3/C[C@@H](O)C[C@H](F)C3)CCC[C@]12C` [Compound 98, 19-Nor 1α-F-3β-OH VD3]: in the test on SREBP (Cricetulus griseus), the IC50 turned out to be 1.59 µM.
With `C=C1C(=CC=C2CCCC3(C)C2CCC3C(C)CCCC(C)C)CC(O)CC1NC(C)=O` (stereo not drawn) [Compound 22a, 1α-NHAc VD3], in the test on SREBP-2, the “levels … of SREBP versus DMSO” value was “lower than that of DMSO”. For the same compound, the half-inhibitory concentration (IC50) at SREBP came to 3.24 µM.
With “19-Nor 1β-NH(p-SCF3Bz)-3β-OH VD3 [Compound 74]”, at SREBP, the IC50 was found to be 1.11 µM.
`C[C@H](CCCC(C)(C)O)[C@H]1CC[C@H]2/C(=C/C=C3/C[C@@H](O)C[C@H](N4C(=O)c5ccccc5C4=O)C3)CCC[C@]12C` [Compound 87, 19-Nor 1α-NPhth-3β-OH VD3]: the IC50 with SREBP (Cricetulus griseus) was found to be 0.52 µM.

Source of the values: patent publication US20180265463A1, “Vitamin D3 Derivatives and Pharmaceutical Use Thereof” (Kyoto University, priority 2014, published 2018).
